Reference: PubChem BioAssay (NCI)
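Where inhibition never reached the appropriate level, the endpoint shown equals the highest concentration tested. Otherwise, values were interpolated linearly from a five-concentration, 48-hour dose response in 96-well plates. Abbreviation: GI50, concentration required for 50% inhibition of growth. The concentration for full growth arrest is given as TGI.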

How the values were obtained:
Assay in all cases: inhibition of tumour cell growth, NCI panel, 48 h
DU-145 prostate = system: DU-145 prostate
HS 578T breast = system: HS 578T breast
KM12 colon = system: KM12 colon
MDA-MB-435 = system: MDA-MB-435
PC-3 prostate = system: PC-3 prostate
SK-MEL-28 melanoma = system: SK-MEL-28 melanoma
UACC-62 melanoma = system: UACC-62 melanoma
UO-31 renal = system: UO-31 renal
MALME-3M melanoma = system: MALME-3M melanoma
T-47D breast = system: T-47D breast

Structure (SMILES)	GI50 (DU-145 prostate)	TGI (DU-145 prostate)	GI50 (HS 578T breast)	TGI (HS 578T breast)	GI50 (KM12 colon)	TGI (KM12 colon)	GI50 (MDA-MB-435)	TGI (MDA-MB-435)	GI50 (PC-3 prostate)	TGI (PC-3 prostate)	GI50 (SK-MEL-28 melanoma)	TGI (SK-MEL-28 melanoma)	GI50 (UACC-62 melanoma)	TGI (UACC-62 melanoma)	GI50 (UO-31 renal)	TGI (UO-31 renal)	GI50 (MALME-3M melanoma)	TGI (MALME-3M melanoma)	GI50 (T-47D breast)	TGI (T-47D breast)
CCOC1Oc2ccc(C)cc2C(=O)/C1=C\Nc1ccc(S(N)(=O)=O)cc1 (stereo not given)	12.9 µM	35.7 µM	14.5 µM	42.6 µM	12 µM	32.5 µM	10 µM	23.8 µM	16.6 µM	> 50 µM	14.5 µM	> 50 µM	12.5 µM	38.2 µM	13.7 µM	> 50 µM	–	–	–	–
C=C1C[C@@H]2O[C@H]3[C@H]4[C@@H](CC[C@@](C)(OC(=O)CCC)[C@H]42)[C@@H](C)C(=O)O[C@@]3(C)CC[C@H]1OO	18 µM	32.8 µM	> 100 µM	> 100 µM	16.4 µM	30.9 µM	17 µM	33.1 µM	–	–	20 µM	35.4 µM	–	–	17.9 µM	33.7 µM	18 µM	37.1 µM	21.4 µM	40 µM
COc1cccc(/C=N\NC(=O)C(C)SC(C)C(=O)N/N=C/c2cccc(OC)c2)c1 (stereo not given)	–	–	–	–	–	> 67.3 µM	–	–	–	–	–	> 72.8 µM	–	97.4 µM	–	> 85.5 µM	–	> 100 µM	–	–
O=C(O)CCCCC1CCSS1 (stereo not given)	–	> 100 µM	–	> 100 µM	–	> 100 µM	–	> 100 µM	–	> 100 µM	–	> 100 µM	–	–	–	> 100 µM	–	> 100 µM	–	> 100 µM
CCOc1ccc2cc(-c3nn(CC4CCNCC4)c4ncnc(N)c34)ccc2c1	19.1 µM	55.6 µM	10.2 µM	43.4 µM	1.64 µM	13.7 µM	13.1 µM	25.8 µM	15.5 µM	41.9 µM	16.1 µM	30.2 µM	16.9 µM	32.1 µM	5.61 µM	20.7 µM	–	–	18.2 µM	50.5 µM
COc1ccc(C)cc1NC(=S)C#N	–	> 100 µM	–	–	–	> 100 µM	–	> 100 µM	–	> 100 µM	–	> 100 µM	–	> 100 µM	–	–	–	–	–	> 100 µM
COc1cc2c(c(OC)c1OC)C(=O)NCCC2	–	–	–	–	–	> 100 µM	–	–	–	–	–	> 100 µM	–	> 100 µM	–	> 100 µM	–	> 100 µM	–	–
N#CCc1cccc(CC#N)c1Br	–	–	–	–	–	> 100 µM	–	–	–	–	–	–	–	> 100 µM	–	> 100 µM	–	> 100 µM	–	–
C[C@H]1CC[P+](C)(c2ccccc2)C1 (stereo not given in full)	–	–	–	–	–	> 100 µM	–	–	–	–	–	> 100 µM	–	> 100 µM	–	> 100 µM	–	> 100 µM	–	–
Cc1cc(C)nc(NS(=O)(=O)c2ccc(Nc3c4ccccc4nc4c(C(=O)NCCN(C)C)cccc34)cc2)n1	–	–	–	–	–	18.4 µM	–	–	–	–	–	20.4 µM	–	14.6 µM	–	5.89 µM	–	–	–	–
O=C1OC(=O)C([Se]c2ccccc2)=C1[Se]c1ccccc1	–	–	–	–	–	–	–	–	–	–	–	> 100 µM	–	> 100 µM	–	–	–	> 100 µM	–	–
O=C1C(=O)C2(CC1S(=O)(=O)c1ccccc1)c1ccccc1-c1ccccc12 (stereo not given)	–	–	–	–	–	33.9 µM	–	–	–	–	–	35.8 µM	–	31.9 µM	–	47 µM	–	> 10 µM	–	–
COc1cc(OC)c2c(=O)c3cccc([N+](=O)[O-])c3n(C)c2c1	–	–	–	–	–	> 100 µM	–	–	–	–	–	> 100 µM	–	> 100 µM	–	> 100 µM	–	> 100 µM	–	–
Cc1ccc(S(=O)C(C)C(Cl)c2ccccc2)cc1 (stereo not given)	–	–	–	–	–	–	–	–	–	–	–	> 100 µM	–	> 100 µM	–	> 100 µM	–	–	–	–
